Results from patent publication US12391664B2, “GluN2C/D subunit selective antagonists of the N-methyl-D-aspartate receptor” (Emory University, priority 2018, dated 2025).

Legend:
[1] = target: T1, recombinant rat GluN1/GluN2A (Rattus norvegicus, UniProt Q00959); test: Two-electrode voltage-clamp recordings in Xenopus laevis oocytes, GluN2A; format: cell-based; details: oocytes, 100 μM glutamate and 30 μM glycine
T1 construct: expressed in transfected cells; host or cells: Xenopus laevis oocytes injected with cRNA (GluN1:GluN2 ratio 1:2)
Method in brief: (§1)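 Oocytes injected with rat GluN1/GluN2 cRNA (1:2), held 2–5 days at 15–17 °C, clamped at −40 mV in Ba2+-containing recording solution, pH 7.4, 23 °C. Compounds applied (up to 100 μM) with 100 μM glutamate plus 30 μM glycine. IC50 and Hill slope from concentration-response fits of averaged current inhibition.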

[2] = target: T2, recombinant rat GluN1/GluN2B (Rattus norvegicus, UniProt Q00960); test: Two-electrode voltage-clamp recordings in Xenopus laevis oocytes, GluN2B; format: cell-based; details: oocytes, 100 μM glutamate and 30 μM glycine
T2 construct: expressed in transfected cells; host or cells: Xenopus laevis oocytes injected with cRNA (GluN1:GluN2 ratio 1:2)
T2 sequence (Q00960 27-1482, other chains not shown): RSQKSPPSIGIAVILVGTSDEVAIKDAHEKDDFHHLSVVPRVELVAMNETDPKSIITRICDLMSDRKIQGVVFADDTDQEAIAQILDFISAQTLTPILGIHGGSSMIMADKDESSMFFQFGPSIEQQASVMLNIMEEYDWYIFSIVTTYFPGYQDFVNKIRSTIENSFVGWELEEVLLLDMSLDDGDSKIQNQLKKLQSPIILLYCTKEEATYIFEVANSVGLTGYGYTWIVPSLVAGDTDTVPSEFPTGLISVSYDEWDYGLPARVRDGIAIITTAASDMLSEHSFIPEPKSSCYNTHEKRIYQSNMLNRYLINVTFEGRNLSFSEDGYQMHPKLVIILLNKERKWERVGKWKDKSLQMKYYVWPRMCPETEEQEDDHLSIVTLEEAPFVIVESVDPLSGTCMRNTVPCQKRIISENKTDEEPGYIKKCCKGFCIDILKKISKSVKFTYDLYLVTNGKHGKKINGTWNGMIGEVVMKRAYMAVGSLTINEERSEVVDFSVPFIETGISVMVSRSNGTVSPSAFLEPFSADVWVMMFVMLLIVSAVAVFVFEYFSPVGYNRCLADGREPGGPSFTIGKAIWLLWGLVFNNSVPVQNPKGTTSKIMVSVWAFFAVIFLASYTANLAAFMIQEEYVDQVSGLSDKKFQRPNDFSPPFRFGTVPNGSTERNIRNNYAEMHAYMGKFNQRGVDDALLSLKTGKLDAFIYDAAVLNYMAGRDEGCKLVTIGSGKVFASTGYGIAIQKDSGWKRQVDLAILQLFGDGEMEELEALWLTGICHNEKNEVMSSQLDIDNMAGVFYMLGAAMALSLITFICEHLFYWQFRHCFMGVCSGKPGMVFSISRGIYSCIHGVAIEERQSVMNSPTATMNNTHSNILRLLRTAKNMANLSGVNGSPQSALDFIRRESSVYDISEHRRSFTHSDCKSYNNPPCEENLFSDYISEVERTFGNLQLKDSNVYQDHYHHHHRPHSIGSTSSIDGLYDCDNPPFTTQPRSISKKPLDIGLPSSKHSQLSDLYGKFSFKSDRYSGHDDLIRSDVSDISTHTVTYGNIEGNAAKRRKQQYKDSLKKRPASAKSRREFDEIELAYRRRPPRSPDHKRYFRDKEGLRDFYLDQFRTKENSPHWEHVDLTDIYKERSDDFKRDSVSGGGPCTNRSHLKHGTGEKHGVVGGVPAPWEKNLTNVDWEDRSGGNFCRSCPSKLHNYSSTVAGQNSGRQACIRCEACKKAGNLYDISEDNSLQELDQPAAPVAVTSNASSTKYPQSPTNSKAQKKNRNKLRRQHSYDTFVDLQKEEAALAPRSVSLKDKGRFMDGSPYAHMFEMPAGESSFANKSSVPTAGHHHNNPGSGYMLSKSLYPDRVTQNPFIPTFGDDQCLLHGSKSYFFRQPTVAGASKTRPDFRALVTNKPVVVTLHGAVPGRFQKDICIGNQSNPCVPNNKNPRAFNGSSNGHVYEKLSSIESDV
Method in brief: as §1

[3] = target: T3, recombinant rat GluN1/GluN2C (Rattus norvegicus, UniProt Q00961); test: Two-electrode voltage-clamp recordings in Xenopus laevis oocytes, GluN2C; format: cell-based; details: oocytes, 100 μM glutamate and 30 μM glycine
T3 construct: expressed in transfected cells; host or cells: Xenopus laevis oocytes injected with cRNA (GluN1:GluN2 ratio 1:2)
T3 sequence (Q00961 20-1237, other chains not shown): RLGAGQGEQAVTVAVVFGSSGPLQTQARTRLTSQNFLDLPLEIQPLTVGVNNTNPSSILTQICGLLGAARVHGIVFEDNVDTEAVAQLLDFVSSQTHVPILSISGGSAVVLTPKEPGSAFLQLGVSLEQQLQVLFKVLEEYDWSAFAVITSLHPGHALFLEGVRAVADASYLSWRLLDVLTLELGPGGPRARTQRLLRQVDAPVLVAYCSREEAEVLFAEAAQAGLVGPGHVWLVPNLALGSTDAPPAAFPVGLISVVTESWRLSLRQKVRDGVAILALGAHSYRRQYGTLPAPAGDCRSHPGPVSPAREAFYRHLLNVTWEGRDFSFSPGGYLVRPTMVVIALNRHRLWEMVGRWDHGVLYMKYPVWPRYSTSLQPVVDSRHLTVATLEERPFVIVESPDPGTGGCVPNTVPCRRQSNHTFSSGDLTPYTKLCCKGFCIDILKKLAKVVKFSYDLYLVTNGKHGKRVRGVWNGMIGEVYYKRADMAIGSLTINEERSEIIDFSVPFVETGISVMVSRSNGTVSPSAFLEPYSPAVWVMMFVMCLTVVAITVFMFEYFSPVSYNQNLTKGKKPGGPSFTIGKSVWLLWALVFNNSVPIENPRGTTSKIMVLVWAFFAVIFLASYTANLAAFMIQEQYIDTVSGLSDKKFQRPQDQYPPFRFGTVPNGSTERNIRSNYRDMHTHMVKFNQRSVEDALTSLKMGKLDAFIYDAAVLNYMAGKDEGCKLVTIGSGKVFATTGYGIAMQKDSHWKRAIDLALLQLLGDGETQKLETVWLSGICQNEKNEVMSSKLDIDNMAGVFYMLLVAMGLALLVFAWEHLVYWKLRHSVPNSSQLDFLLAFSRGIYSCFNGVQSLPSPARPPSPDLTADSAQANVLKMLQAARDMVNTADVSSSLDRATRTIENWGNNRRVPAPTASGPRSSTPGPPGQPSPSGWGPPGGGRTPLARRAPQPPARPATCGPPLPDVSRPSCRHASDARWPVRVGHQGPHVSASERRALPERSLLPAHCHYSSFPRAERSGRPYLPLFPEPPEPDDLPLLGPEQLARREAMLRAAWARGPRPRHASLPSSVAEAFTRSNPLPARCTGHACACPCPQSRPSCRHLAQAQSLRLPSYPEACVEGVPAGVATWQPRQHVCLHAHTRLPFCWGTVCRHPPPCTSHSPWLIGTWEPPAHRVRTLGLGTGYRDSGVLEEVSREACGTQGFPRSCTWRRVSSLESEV
Method in brief: as §1

[4] = target: T4, recombinant rat GluN1/GluN2D (Rattus norvegicus, UniProt Q62645); test: Two-electrode voltage-clamp recordings in Xenopus laevis oocytes, GluN2D; format: cell-based; details: oocytes, 100 μM glutamate and 30 μM glycine
T4 construct: expressed in transfected cells; host or cells: Xenopus laevis oocytes injected with cRNA (GluN1:GluN2 ratio 1:2)
T4 sequence (Q62645 28-1323, other chains not shown): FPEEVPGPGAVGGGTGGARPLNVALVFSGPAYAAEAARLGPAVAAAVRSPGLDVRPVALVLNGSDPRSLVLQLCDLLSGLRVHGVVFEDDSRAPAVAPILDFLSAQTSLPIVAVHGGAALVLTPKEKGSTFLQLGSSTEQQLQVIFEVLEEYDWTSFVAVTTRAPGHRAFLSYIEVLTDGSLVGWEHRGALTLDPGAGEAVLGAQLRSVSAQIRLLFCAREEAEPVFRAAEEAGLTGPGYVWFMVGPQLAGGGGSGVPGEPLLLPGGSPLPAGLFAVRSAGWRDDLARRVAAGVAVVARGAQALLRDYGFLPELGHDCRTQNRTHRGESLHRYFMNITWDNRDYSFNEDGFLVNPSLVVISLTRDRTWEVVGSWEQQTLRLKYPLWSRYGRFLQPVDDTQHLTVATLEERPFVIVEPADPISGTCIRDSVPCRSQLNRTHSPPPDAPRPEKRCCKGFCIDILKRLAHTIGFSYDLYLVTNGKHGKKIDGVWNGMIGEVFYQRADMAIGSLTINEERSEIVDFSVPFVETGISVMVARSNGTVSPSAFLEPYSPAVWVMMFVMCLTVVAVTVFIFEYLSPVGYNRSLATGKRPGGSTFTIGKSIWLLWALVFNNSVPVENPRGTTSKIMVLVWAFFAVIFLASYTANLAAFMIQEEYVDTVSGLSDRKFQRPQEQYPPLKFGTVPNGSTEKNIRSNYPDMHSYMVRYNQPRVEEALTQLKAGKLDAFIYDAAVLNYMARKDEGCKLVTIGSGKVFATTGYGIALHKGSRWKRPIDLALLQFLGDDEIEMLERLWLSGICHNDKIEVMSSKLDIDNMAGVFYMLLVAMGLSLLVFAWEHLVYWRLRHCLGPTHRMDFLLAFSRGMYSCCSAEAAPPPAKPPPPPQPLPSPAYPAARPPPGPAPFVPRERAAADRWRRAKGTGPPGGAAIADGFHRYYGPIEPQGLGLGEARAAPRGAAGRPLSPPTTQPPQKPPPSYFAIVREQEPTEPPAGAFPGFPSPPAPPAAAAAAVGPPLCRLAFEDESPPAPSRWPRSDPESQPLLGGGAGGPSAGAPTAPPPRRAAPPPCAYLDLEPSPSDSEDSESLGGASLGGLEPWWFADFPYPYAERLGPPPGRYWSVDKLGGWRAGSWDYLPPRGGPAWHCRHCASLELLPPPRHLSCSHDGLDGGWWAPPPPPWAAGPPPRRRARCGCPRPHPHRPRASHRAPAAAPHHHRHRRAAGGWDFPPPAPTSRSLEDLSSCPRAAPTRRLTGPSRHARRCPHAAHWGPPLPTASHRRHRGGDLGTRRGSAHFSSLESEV
Method in brief: as §1

[5] = system: recombinant GluN2A-D subunits; test: Two-electrode voltage-clamp recordings, statements on all receptors; format: cell-based, rat
Protocol: All target compounds were evaluated for activity by the Traynelis laboratory at Emory University using two-electrode voltage-clamp recordings performed in Xenopus laevis oocytes expressing recombinant GluN2A-D subunits (Table 1). […] Two ester compounds 997-65 and 997-66 also performed no inhibition at GluN2A to GluN2D receptors. […] Consequently, for the compounds that Acker et al. already published, it was necessary to increase the concentration to 100 μM when collecting data for a concentration effect curve. […] Therefore, under this condition, we can only conclude that compound 997-67 remained potent at GluN2C/D-containing receptors, but its selectivity over GluN2A- and GluN2B-containing receptors could not be compared to 997-57. […] Finally, replacing the carboxylic acid to the bio-isostere amide yielded compounds 997-96 and 997-115, which dropped the potency 2- to 4-fold in comparison to their corresponding acids 997-74 and 997-114.
Two-electrode voltage-clamp recordings were performed in Xenopus laevis oocytes that were injected with mRNA to express recombinant rat GluN1/GluN2A, GluN1/GluN2B, GluN1/GluN2C, and GluN1/GluN2D. The recordings using unfertilized oocytes from Xenopus laevis were permitted by Emory University Institutional Animal Care and Use Committee (IACUC). An automatic injector (Nanoject II, Drummond Scientific) was used for cRNA injection using the pipettes filled with mineral oil. The cRNA that transcribed in vitro via the mMessage Machine kit (Ambion) was diluted with nuclease-free water, and then injected at GluN1/GluN2 with a ratio of 1:2. The oocytes were stored in Barth's solution that contained 88 mM NaCl, 5.0 mM Tris-HCl, 2.4 mM NaHCO3, 1.0 mM KCl, 0.84 mM MgSO4, 0.41 mM CaCl2, 0.33 mM Ca(NO3)2, 0.1 mg/ml gentamycin sulfate, 1.0 U/ml penicillin, and 1 μg/ml streptomycin at a pH of 7.4 and temperatures of 15-17° C. for two to five days before the two-electrode voltage-clamp recordings. When recording, the oocytes were placed in a perfusion chamber and continually washed with the recording solution comprised of 90 mM NaCl, 1.0 mM KCl, 0.50 mM BaCl2, 0.005 mM EDTA, and 10 mM HEPES at a pH of 7.4 and a temperature of 23° C. Glass electrodes with a tip resistance of 0.5 to 2.5 MΩ were obtained from thin-walled glass capillary tubes. Voltage electrodes and current electrodes were filled with 0.3 M and 3.0 M KCl, respectively. The recordings were executed with the oocytes membrane potential holding at −40 m V by an OC-725 amplifier (Warner Instrument Co). All compounds were dissolved in dimethyl sulfoxide (DMSO) as 20 mM stock solutions and future diluted to reach the desired concentration (0.05-0.5% (vol/vol) DMSO) in recording solution comprised of 30 μM glycine and 100 μM glutamate. Each compound was recorded 3-7 times in the least 4 oocytes from at least 2 different Xenopus laevis.
To evaluate the inhibition of compounds, the concentration-response curve was fitted with the average two-electrode voltage-clamp recording results with the equation
[formula] • where IC50 is the concentration of compounds that inhibit half maximal of the current response and N is the Hill slope.

| Compound | GluN2A IC50 [1] | GluN2B IC50 [2] | GluN2C IC50 [3] | GluN2D IC50 [4] | activity at all receptors (GluN2A to GluN2D), in words [5] |
| --- | --- | --- | --- | --- | --- |
| CCOC(=O)C(F)(F)CC(=O)N1N=C(c2c(-c3cccc(F)c3)c3ccccc3[nH]c2=O)CC1c1ccc(Cl)cc1 (stereo not shown) [997-65, Ethyl 4-{5-(4-chlorophenyl)-3-[4-(3-fluorophenyl)-2-oxo-1,2-dihydroquinolin-3-yl]-4,5-dihydro-1H-pyrazol-1-yl}-2,2-difluoro-4-oxobutanoate] | NE (NE indicates less than 50% inhibition at 30 μM.) | NE (NE indicates less than 50% inhibition at 30 μM.) | NE (NE indicates less than 50% inhibition at 30 μM.) | NE (NE indicates less than 50% inhibition at 30 μM.) | no inhibition |
| CCOC(=O)C(F)(F)CC(=O)N1N=C(c2c(-c3ccc(Cl)cc3)c3ccccc3[nH]c2=O)CC1c1ccc(Cl)cc1 (stereo not shown) [997-66, Ethyl 4-{5-(4-chlorophenyl)-3-[4-(4-chlorophenyl)-2-oxo-1,2-dihydroquinolin-3-yl]-4,5-dihydro-1H-pyrazol-1-yl}-2,2-difluoro-4-oxobutanoate] | NE (NE indicates less than 50% inhibition at 30 μM.) | NE (NE indicates less than 50% inhibition at 30 μM.) | NE (NE indicates less than 50% inhibition at 30 μM.) | NE (NE indicates less than 50% inhibition at 30 μM.) | no inhibition |
| O=c1[nH]c2ccccc2c(-c2ccc(Cl)cc2)c1C1=NNC(c2ccc(Cl)cc2)C1 (stereo not shown) [997-70, 4-(4-chlorophenyl)-3-[5-(4-chlorophenyl)-4,5-dihydro-1H-pyrazol-3-yl]quinolin-2(1H)-one] | NE (NE indicates less than 50% inhibition at 30 μM.) | NE (NE indicates less than 50% inhibition at 30 μM.) | NE (NE indicates less than 50% inhibition at 30 μM.) | NE (NE indicates less than 50% inhibition at 30 μM.) | inactive |
| O=C(/C=C/c1ccc(Cl)cc1)c1c(-c2cccc(F)c2)c2ccccc2[nH]c1=O [997-71, (E)-3-[3-(4-chlorophenyl)acryloyl]-4-(3-fluorophenyl)quinolin-2(1H)-one] | NE (NE indicates less than 50% inhibition at 30 μM.) | NE (NE indicates less than 50% inhibition at 30 μM.) | NE (NE indicates less than 50% inhibition at 30 μM.) | NE (NE indicates less than 50% inhibition at 30 μM.) | inactive |
| Cc1c(C2=NN(C(=O)CCC(=O)O)C(c3ccc(Cl)cc3)C2)c(=O)[nH]c2ccccc12 (stereo not shown) [997-76, 4-(5-(4-chlorophenyl)-3-(4-methyl-2-oxo-1,2-dihydroquinolin-3-yl)-4,5-dihydro-1H-pyrazol-1-yl)-4-oxobutanoic acid] | NE (NE indicates less than 50% inhibition at 30 μM.) | NE (NE indicates less than 50% inhibition at 30 μM.) | NE (NE indicates less than 50% inhibition at 30 μM.) | NE (NE indicates less than 50% inhibition at 30 μM.) | inactive |
| O=C(O)CCC(=O)N1N=C(c2c(-c3ccc(Cl)cc3)c3ccccc3[nH]c2=O)CC1c1ccncc1 (stereo not shown) [997-79, 4-(3-(4-(4-chlorophenyl)-2-oxo-1,2-dihydroquinolin-3-yl)-5-(pyridin-4-yl)-4,5-dihydro-1H-pyrazol-1-yl)-4-oxobutanoic acid] | NE (NE indicates less than 50% inhibition at 30 μM.) | NE (NE indicates less than 50% inhibition at 30 μM.) | NE (NE indicates less than 50% inhibition at 30 μM.) | NE (NE indicates less than 50% inhibition at 30 μM.) | inactive |
| O=C(O)CCC(=O)N1N=C(c2c(-c3ccc(Cl)cc3)c3ccccc3[nH]c2=O)CC1c1cnccn1 (stereo not shown) [997-80, 4-(3-(4-(4-chlorophenyl)-2-oxo-1,2-dihydroquinolin-3-yl)-5-(pyrazin-2-yl)-4,5-dihydro-1H-pyrazol-1-yl)-4-oxobutanoic acid] | NE (NE indicates less than 50% inhibition at 30 μM.) | NE (NE indicates less than 50% inhibition at 30 μM.) | NE (NE indicates less than 50% inhibition at 30 μM.) | NE (NE indicates less than 50% inhibition at 30 μM.) | inactive |
| O=C(O)CCC(=O)N1N=C(c2c(-c3ccc(Cl)cc3)c3ccccc3[nH]c2=O)CC1c1cccnc1 (stereo not shown) [997-83, 4-(3-(4-(4-chlorophenyl)-2-oxo-1,2-dihydroquinolin-3-yl)-5-(pyridin-3-yl)-4,5-dihydro-1H-pyrazol-1-yl)-4-oxobutanoic acid] | NE (NE indicates less than 50% inhibition at 30 μM.) | NE (NE indicates less than 50% inhibition at 30 μM.) | NE (NE indicates less than 50% inhibition at 30 μM.) | NE (NE indicates less than 50% inhibition at 30 μM.) | inactive |
| O=C(O)CCC(=O)N1N=C(c2c(-c3ccc(Cl)cc3)c3ccccc3[nH]c2=O)CC1c1ccncc1Cl (stereo not shown) [997-88, 4-(3-(4-(4-chlorophenyl)-2-oxo-1,2-dihydroquinolin-3-yl)-5-(3-chloropyridin-4-yl)-4,5-dihydro-1H-pyrazol-1-yl)-4-oxobutanoic acid] | NE (NE indicates less than 50% inhibition at 30 μM.) | NE (NE indicates less than 50% inhibition at 30 μM.) | NE (NE indicates less than 50% inhibition at 30 μM.) | NE (NE indicates less than 50% inhibition at 30 μM.) | inactive |
| O=C(O)CC(F)(F)C(=O)N1N=C(c2ccccc2-c2cccc(F)c2)CC1c1ccc(Cl)cc1 (stereo not shown) [997-100, 4-(5-(4-chlorophenyl)-3-(3′-fluoro-[1,1′-biphenyl]-2-yl)-4,5-dihydro-1H-pyrazol-1-yl)-3,3-difluoro-4-oxobutanoic acid] | NE (NE indicates less than 50% inhibition at 30 μM.) | NE (NE indicates less than 50% inhibition at 30 μM.) | NE (NE indicates less than 50% inhibition at 30 μM.) | NE (NE indicates less than 50% inhibition at 30 μM.) | lost the activity |
| O=C(O)CC(F)(F)C(=O)N1N=C(c2ccccc2-c2ccc(Cl)cc2)CC1c1cccc2c1OCO2 (stereo not shown) [997-119, 4-(5-(benzo[d][1,3]dioxol-4-yl)-3-(4′-chloro-[1,1′-biphenyl]-2-yl)-4,5-dihydro-1H-pyrazol-1-yl)-3,3-difluoro-4-oxobutanoic acid] | NE (NE indicates less than 50% inhibition at 30 μM.) | NE (NE indicates less than 50% inhibition at 30 μM.) | NE (NE indicates less than 50% inhibition at 30 μM.) | NE (NE indicates less than 50% inhibition at 30 μM.) | inactive |
